The results in this text go back to US20250090699A1, “FAP TARGETING CYCLIC PEPTIDES AND CONJUGATES THEREOF” (Novartis AG, priority 2023, published 2025).

Counter-ions that a name gives are not always drawn. Like-named read-outs stand apart in the source and are kept apart here. Starred links: 1 amine or outer side, 2 acyl side, 3 side chain; linkers in the order of their positions; H or OH if unused. Positions of bridges follow the written chain, without caps; N, C: chain ends. Non-standard residues stand in square brackets, D forms with d. Residues, ends and D or L forms follow the SMILES beside them. Groups on a side chain read outwards from the residue. Chains are numbered I, II in the order given. *: point of attachment. F(4amPEG2NHDOTA-Lu) = lutetium complex of (S)-2,2',2''-(10-(1-(4-(2-amino-2-carboxyethyl)phenyl)-3,12-dioxo-5,8-dioxa-2,11-diazatridecan-13-yl)-1,4,7,10-tetraazacyclododecane-1,4,7-triyl)triacetic acid (Phe with 4-aminomethyl-PEG2-DOTA-Lu), O=C([O-])CN1CCN(CC(=O)[O-])CCN(CC(=O)NCCOCCOCC(=O)NCc2ccc(C[C@H](N[*:1])C(=O)[*:2])cc2)CCN(CC(=O)[O-])CC1.[Lu+3]; F(4OEtNHDOTA-Lu) = lutetium complex of (S)-2,2',2''-(10-(2-((2-(4-(2-amino-2-carboxyethyl)phenoxy)ethyl)amino)-2-oxoethyl)-1,4,7,10-tetraazacyclododecane-1,4,7-triyl)triacetic acid (Phe with 4-O-ethylamino-DOTA-Lu), O=C([O-])CN1CCN(CC(=O)[O-])CCN(CC(=O)NCCOc2ccc(C[C@H](N[*:1])C(=O)[*:2])cc2)CCN(CC(=O)[O-])CC1.[Lu+3]; X1 = O=C(O)CN1CCN(CC(=O)O)CCN(CC(=O)NC(CC(=O)NCCOCCOCC(=O)[*:1])CC(=O)NCCOCCOCC(=O)[*:2])CCN(CC(=O)O)CC1; Q(Pyrro(2CN4F2)) = 2-amino-5-(2-cyano-4,4-difluoropyrrolidin-1-yl)-5-oxopentanoic acid; COpipzaa = 4-(carboxymethyl)piperazine-1-carbonyl, O=C(O)CN1CCN(C(=O)*)CC1; DOTA = O=C(O)CN1CCN(CC(=O)O)CCN(CC(=O)*)CCN(CC(=O)O)CC1; Phe(4-CH2NH2) = NCc1ccc(C[C@H](N)C(=O)O)cc1; Piperazinyl(4-CH2COOH) = O=C(O)CN1CCN(*)CC1; NMeF = CN[C@@H](Cc1ccccc1)C(=O)O; Aoc(2) = CCCCCC[C@H](N)C(=O)O; Ahp(2) = CCCCC[C@H](N)C(=O)O; hSer = N[C@@H](CCO)C(=O)O; AEEA = NCCOCCOCC(=O)O; CO = O=C([*:1])[*:2]; Propyl = CCC*

Experiment [1] deals with T1, human FAP (Homo sapiens, UniProt Q12884).
T1 construct: the biotinylated His, Avi tag, human FAP (26-760, FAP-H82Q6); His; Avi tag (biotinylated); purchased AcroBiosystems FAP-H82Q6
T1 sequence (Q12884 26-760): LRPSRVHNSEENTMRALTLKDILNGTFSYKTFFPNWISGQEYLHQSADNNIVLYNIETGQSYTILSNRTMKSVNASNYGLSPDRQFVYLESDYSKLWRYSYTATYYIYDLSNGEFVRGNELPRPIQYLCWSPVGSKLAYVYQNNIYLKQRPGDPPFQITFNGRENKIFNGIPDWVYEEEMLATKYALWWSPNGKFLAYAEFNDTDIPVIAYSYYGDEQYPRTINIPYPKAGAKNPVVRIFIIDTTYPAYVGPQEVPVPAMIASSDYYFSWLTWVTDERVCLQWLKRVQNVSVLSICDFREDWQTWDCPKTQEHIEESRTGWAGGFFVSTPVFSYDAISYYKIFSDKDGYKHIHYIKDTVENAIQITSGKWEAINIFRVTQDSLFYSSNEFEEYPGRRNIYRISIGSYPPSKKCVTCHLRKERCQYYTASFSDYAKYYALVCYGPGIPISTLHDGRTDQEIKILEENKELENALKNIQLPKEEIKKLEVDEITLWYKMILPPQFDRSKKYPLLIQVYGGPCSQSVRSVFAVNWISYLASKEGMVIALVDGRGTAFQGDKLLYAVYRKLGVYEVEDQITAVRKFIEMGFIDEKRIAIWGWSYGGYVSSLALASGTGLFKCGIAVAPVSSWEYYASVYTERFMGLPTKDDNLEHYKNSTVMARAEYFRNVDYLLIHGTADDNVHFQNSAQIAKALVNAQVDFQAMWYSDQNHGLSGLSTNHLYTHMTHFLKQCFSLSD
Kind of experiment: Surface plasmon resonance (SPR) for peptide affinity, human FAP. As to conditions: read-out: h. FAP, SPR, KD. Type of experiment: binding. As for the experimental part:
Peptide affinities (KD) were determined by SPR using a Biacore™ 8K device (Cytiva) towards the following proteins: biotinylated His, Avi tag, human FAP (26-760, FAP-H82Q6), biotinylated His, Avi tag, mouse FAP (26-761, FAP-M82Q5), His tag, human DPP4 (34-766, DP4-H82E3), all purchased from AcroBiosystems and His tag, mouse DPP4 (29-760, 954-SE) from R&D Systems. The FAP proteins and their homologous were diluted to a concentration of 2 μg/mL into acetate buffer pH 5.5, then immobilized onto a CM5 sensorchip (Cytiva, BR-1005-30) to reach a response around 2000 R U. The running buffer HBS-EP+pH 7.6 (20× from Teknova CAT. No: H8022) contained 10 mM HEPES pH 7.6, 150 mM NaCl, 3 mM EDTA, 0.05% Tween20 and 2% DMSO. Experiments were carried out at 25° C. using a flow rate of 30 μL/min. Compounds were tested in single cycle kinetic mode at 8 different concentrations. Curve fitting was performed using the Biacore™ 8K evaluation software. The sensorgrams were fitted by applying a 1:1 binding model to calculate kinetic rate constants and equilibrium dissociation constants (KD).
For this assay, the setup had the same conditions (flow rate, running buffer, peptide dilution) as described above for the CM5 method. The oligo CAP reagent obtained in the CAPture Kit (Ref. 28920234) was 1/5 diluted into running buffer and used with a contact time of 300 s at a flow rate of 2 μL/min. The human and mouse FAP constructs described above were used (from AcroBiosystems or produced in house). The FAP proteins were diluted to a concentration of 2 μg/mL into acetate pH 5.5, 0.05% Tween20 and used with a contact time of 600 s at a flow rate of 10 μL/min. The peptides were tested with an association time of 280 s followed by a dissociation time of 3000 s at a flow rate of 30 μL/min. The regeneration was done using the regeneration solution (8 M guanidine-HCl, 1 M NaOH) as obtained with a contact time of 270 s at a flow rate of 10 μL/min. […] The compounds marked with an asterisk were tested against human and mouse DDP4.
(In general: Surface plasmon resonance follows binding to a sensor surface in real time, without labels.)

For experiment [2], the target named is T2, mouse FAP (Mus musculus, UniProt P97321).
T2 construct: biotinylated His, Avi tag, mouse FAP (26-761, FAP-M82Q5); His; Avi tag (biotinylated); purchased AcroBiosystems FAP-M82Q5
T2 sequence (P97321 26-761): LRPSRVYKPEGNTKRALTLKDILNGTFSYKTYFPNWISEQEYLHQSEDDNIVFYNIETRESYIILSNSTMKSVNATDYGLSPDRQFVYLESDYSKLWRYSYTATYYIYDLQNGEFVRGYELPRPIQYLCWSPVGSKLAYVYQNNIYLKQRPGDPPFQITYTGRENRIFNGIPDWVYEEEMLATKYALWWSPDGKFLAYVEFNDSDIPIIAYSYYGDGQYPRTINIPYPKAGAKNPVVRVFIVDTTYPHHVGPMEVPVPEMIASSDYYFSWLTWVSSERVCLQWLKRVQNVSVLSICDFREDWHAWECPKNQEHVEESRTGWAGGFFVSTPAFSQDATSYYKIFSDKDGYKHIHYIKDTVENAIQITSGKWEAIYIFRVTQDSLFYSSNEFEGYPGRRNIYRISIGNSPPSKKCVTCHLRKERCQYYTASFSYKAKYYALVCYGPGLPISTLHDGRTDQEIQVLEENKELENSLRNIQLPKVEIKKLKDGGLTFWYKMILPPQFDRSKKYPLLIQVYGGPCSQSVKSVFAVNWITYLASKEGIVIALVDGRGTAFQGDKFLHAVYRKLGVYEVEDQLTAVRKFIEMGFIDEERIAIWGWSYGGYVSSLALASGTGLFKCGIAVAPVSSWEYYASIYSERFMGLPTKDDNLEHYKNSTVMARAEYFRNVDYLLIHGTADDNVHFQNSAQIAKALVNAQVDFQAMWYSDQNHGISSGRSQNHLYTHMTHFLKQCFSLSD
Put plainly: Surface plasmon resonance (SPR) for peptide affinity, mouse FAP. Type of experiment: binding. In outline:
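Biotinylated His/Avi-tagged FAP ectodomains (human 26-760, mouse 26-761) captured or immobilized on Biacore sensor chips; peptides run at 25 °C in HBS-EP+ pH 7.6 with 2% DMSO, single-cycle kinetics, 8 concentrations. KD from 1:1 binding-model fit of sensorgrams.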

The target in experiment [3] is T1, human FAP. Put plainly: Enzymatic FAP competition assay (Z-Gly-Pro-AMC fluorescence), human FAP. Type of experiment: biochemical. Particulars: read-out: h. FAP, Enz., IC50. Put shortly: (§1)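 Biotinylated His/Avi-tagged FAP ectodomain (human 26-760, mouse 26-761) at 0.01 nM, preincubated 24 h with peptides (14 concentrations, up to 1 μM) in pH 7.5 phosphate, 150 mM NaCl, 0.05% Tween20, 1% DMSO. Then 50 μM Z-Gly-Pro-AMC, 4 h at 22-24° C; AMC fluorescence (380/460 nm) gave IC50 from duplicate points.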

The target in experiment [4] is T2, mouse FAP. Kind of experiment: Enzymatic FAP competition assay (Z-Gly-Pro-AMC fluorescence), mouse FAP. Type of experiment: biochemical. Particulars: read-out: m. FAP, Enz., IC50. In outline:
as §1

On to `CCCOCC[C@@H]1NC(=O)[C@H](Cc2ccc(CNC(=O)COCCOCCN)cc2)NC(=O)[C@H](Cc2ccccc2)N(C)C(=O)CNC(=O)CNC(=O)[C@H]2CCCN2C(=O)[C@H](CC(=O)O)NC(=O)[C@H](CCCCNC(=O)N2CCN(CC(=O)O)CC2)NC(=O)CNC(=O)[C@H](Cc2c[nH]c3ccccc23)NC1=O` [Example A2, 2-((9S,12S,15S,18S,24S,27S,32aR)-18-((1H-indol-3-yl)methyl)-12-(4-((2-(2-(2-aminoethoxy)ethoxy)acetamido)methyl)benzyl)-9-benzyl-24-(4-(4-(carboxymethyl)piperazine-1-carboxamido)butyl)-8-methyl-1,4,7,10,13,16,19,22,25,28-decaoxo-15-(2-propoxyethyl)dotriacontahydropyrrolo[1,2-a][1,4,7,10,13,16,19,22,25,28]decaazacyclotriacontin-27-yl)acetic acid TFA salt] (cyclo(D[dP]GG[NMeF][Phe(4-CH2NH2)](AEEA)[hSer](Propyl)WGK([CO-Piperazinyl(4-CH2COOH)]))), for which the Kd – broadly, the constant that tells how readily two partners part at equilibrium – in experiment [1] was under 0.011 nM; in experiment [2] it was under 0.023 nM. Moreover, the 50% inhibitory concentration (IC50) (as a rule, the point on the concentration scale where inhibition reaches its midpoint) in experiment [3] was determined as 0.012 nM; in experiment [4], 0.047 nM.

For the compound `CCCCCC[C@@H]1NC(=O)[C@H](Cc2ccc(CNC(=O)COCCOCCNC(=O)CN3CCN(CC(=O)O)CCN(CC(=O)O)CCN(CC(=O)O)CC3)cc2)NC(=O)[C@H](Cc2ccccc2)N(C)C(=O)CNC(=O)CNC(=O)[C@H]2CCCN2C(=O)[C@H](CC(=O)O)NC(=O)[C@H](CCCCNC(=O)N2CCN(CC(=O)O)CC2)NC(=O)CNC(=O)[C@H](Cc2c[nH]c3ccccc23)NC1=O` [Example B1, Gly-Gly-NMePhe-F(4amPEG2NHDOTA)-Aoc-Trp-Gly-K(COpipzaa)-Asp-D-Pro] (cyclo(GG[NMeF][Phe(4-CH2NH2)]([AEEA-DOTA])[Aoc(2)]WGK([CO-Piperazinyl(4-CH2COOH)])D[dP])), the dissociation constant Kd in experiment [1] was under 0.011 nM; in experiment [2] it was under 0.018 nM. Moreover, the IC50 in experiment [3] came out at 0.005 nM; in experiment [4], 0.013 nM.

Regarding “Gly-Gly-NMePhe-F(4OEtNHDOTA-Lu)-Ahp-Trp-Gly-Tyr-Asp-D-Pro (cyclo(GG[NMeF][F(4OEtNHDOTA-Lu)][Ahp(2)]WGYD[dP]); also: Lu complex of DOTA) [Example C23]”, the dissociation constant (Kd) in experiment [1] was under 0.009 nM; in experiment [2] it was under 0.011 nM; in experiment [2] (values marked ** : including further experimental repetition), under 0.06 nM. Further, the figures for the concentration for half-maximal inhibition (IC50) in experiment [3] and in experiment [4] were 0.016 nM and 0.061 nM, respectively.

As for `CCCOCC[C@@H]1NC(=O)[C@H](Cc2ccc(CNC(=O)COCCOCCNC(=O)CC(CC(=O)NCCOCCOCC(=O)NCc3ccc(C[C@@H]4NC(=O)[C@H](Cc5ccccc5)N(C)C(=O)CNC(=O)CNC(=O)[C@H]5CCCN5C(=O)[C@H](CC(=O)O)NC(=O)[C@H](CCCCNC(=O)N5CCN(CC(=O)O)CC5)NC(=O)CNC(=O)[C@H](Cc5c[nH]c6ccccc56)NC(=O)[C@H](CCOCCC)NC4=O)cc3)NC(=O)CN3CCN(CC(=O)O)CCN(CC(=O)O)CCN(CC(=O)O)CC3)cc2)NC(=O)[C@H](Cc2ccccc2)N(C)C(=O)CNC(=O)CNC(=O)[C@H]2CCCN2C(=O)[C@H](CC(=O)O)NC(=O)[C@H](CCCCNC(=O)N2CCN(CC(=O)O)CC2)NC(=O)CNC(=O)[C@H](Cc2c[nH]c3ccccc23)NC1=O` [Example M3] (I: cyclo(GG[NMeF][Phe(4-CH2NH2)][hSer](Propyl)WGK([CO-Piperazinyl(4-CH2COOH)])D[dP]) / II: cyclo(GG[NMeF][Phe(4-CH2NH2)][hSer](Propyl)WGK([CO-Piperazinyl(4-CH2COOH)])D[dP]); linker I:4-II:4 via X1), the figures for the equilibrium dissociation constant (Kd) in experiment [1] and in experiment [2] were under 0.043 nM and under 0.078 nM, respectively. Further, the IC50 amounted to 0.035 nM in experiment [3] and 0.144 nM in experiment [4].

Regarding “Gly-Gly-NMePhe-F(4amPEG2NHDOTA-Lu)-Q(Pyrro(2CN4F2))-Trp-Gly-K(COpipzaa)-Asp-D-Pro (cyclo(GG[NMeF][F(4amPEG2NHDOTA-Lu)][Q(Pyrro(2CN4F2))]WGK(COpipzaa)D[dP]); also: Lu complex) [Example C19]”, the dissociation constant (Kd) was under 0.018 nM in experiment [1] and under 0.04 nM in experiment [2]. For the same compound, the results for the IC50 in experiment [3] and in experiment [4] were 0.018 nM and 0.031 nM, respectively.
